Assays:
[1] = Antiinflammatory activity in mouse RAW264.7 cells assessed as inhibition of LPS-induced nitric oxide production after 24 hrs by Griess assay; format: functional, cell-based; conditions: RAW264.7, 24 h
[2] = Cytotoxicity against mouse RAW264.7 cells by CCK assay; format: cell-based

| SMILES | IC50 [1] | Activity [2] |
| --- | --- | --- |
| COc1cc(OC)c([C@H]2COc3cc(O)ccc3C2=O)cc1OC | > 100 µM | Non-toxic |
| COc1cc2oc(=O)cc(-c3ccc(O)c(O)c3)c2cc1O | 45.5 µM | Non-toxic |
| C=C[C@H](c1cccc(O)c1)c1cc(OC)c(OC)cc1OC | 70.3 µM | Non-toxic |
| O=C(c1ccc(O)cc1O)[C@H](O)Cc1ccc(O)c(O)c1 | > 100 µM | Non-toxic |
| COc1cc2c(=O)c3ccccc3oc2cc1O | > 100 µM | Non-toxic |
| COc1ccc(-c2coc3cc(O)ccc3c2=O)c(OC)c1 [2'-METHOXYFORMONETIN] | > 100 µM | Non-toxic |
| COc1ccc([C@@H]2COc3cc(O)ccc3C2=O)c(OC)c1OC [(3R)-3'-O-METHYLVIOLANONE] | > 100 µM | Non-toxic |
| COc1ccc([C@@H]2COc3cc(O)ccc3C2=O)c(OC)c1 [(3R)-SATIVANONE] | > 100 µM | Non-toxic |
| COc1ccc([C@@H]2COc3cc(O)ccc3C2=O)c(OC)c1O [(3R)-VIOLANONE] | > 100 µM | Non-toxic |
| O=C(/C=C/c1ccc(O)c(O)c1)c1ccc(O)cc1O [BUTEIN] | 35.1 µM | Non-toxic |
| O=c1c(-c2ccc(O)cc2)coc2cc(O)ccc12 [DAIDZEIN] | > 100 µM | Non-toxic |
| COc1ccc(-c2coc3cc(O)ccc3c2=O)cc1 [FORMONONETIN] | 56.1 µM | Non-toxic |
| O=C(/C=C/c1ccc(O)cc1)c1ccc(O)cc1O [ISOLIQUIRITIGENIN] | 72 µM | Non-toxic |
| C=C[C@H](c1ccccc1O)c1cc(O)c(OC)cc1OC [LATIFOLIN] | 73.2 µM | Non-toxic |
| COc1cc(-c2coc3cc(O)cc(O)c3c2=O)c(OC)cc1O [OLIBERGIN A] | 45.5 µM | Non-toxic |
| N=C(N)NN [PIMAGEDINE] | 16.6 µM | – |
| COc1cc(O)c2c(c1)O[C@H](c1ccccc1)CC2=O [PINOSTROBIN] | 53.5 µM | Non-toxic |

Now from value to molecule, other results behind:

| IC50 [1] | SMILES | Activity [2] |
| --- | --- | --- |
| > 100 µM | O=C1C[C@@H](c2cc(O)cc(O)c2)Oc2cc(O)cc(O)c21 | Non-toxic |
| 83.7 µM | COc1ccc2c(c1)O[C@H]1c3ccc(O)cc3OC[C@@H]21 | Non-toxic |
| > 100 µM | COc1cc2c(cc1O)C(=O)C[C@@H](c1ccc(O)cc1)O2 | Non-toxic |
| 73.9 µM | C=C[C@H](c1ccccc1)c1cc(OC)c(OC)cc1O | Non-toxic |
| > 100 µM | O=C(c1ccc(O)cc1O)[C@H](O)Cc1ccc(O)cc1 | Non-toxic |
| > 100 µM | COc1ccc([C@@]2(O)COc3cc(O)ccc3C2=O)c(OC)c1 | Non-toxic |
| 74 µM | C=C[C@H](c1ccccc1O)c1cc(OC)c(OC)cc1OC [5-O-METHYLLATIFOLIN] | Non-toxic |
| 53.2 µM | COc1cc2oc(=O)cc(-c3ccc(O)cc3)c2cc1O [MELANETTIN] | Non-toxic |
| 43.7 µM | O=c1c(-c2ccc(O)c(O)c2)coc2cc(O)cc(O)c12 [OROBOL] | Non-toxic |
| 18.1 µM | O=C1C[C@@H](c2ccccc2)Oc2cc(O)cc(O)c21 [PINOCEMBRIN] | Non-toxic |
